In patent US10160867B2, “Benzoxaborole-containing coating resistant to cellulose-supportable fungus” (THE PENN STATE RESEARCH FOUNDATION, priority 2015, dated 2018):
Converted amounts (≈) assume the structure as drawn.

Columns and labels:
Format in all cases: cell-based
[1] = system: Aspergillus fumigatus; assay: 3 day MIC, broth microdilution in 25% PDB; conditions: for MIC: 72 h
Description: Stock solutions (concentrations of between 4,000 μg/mL to 10,000 μg/mL; stored at −18° C.) of the above antifungals were prepared in dimethyl sulfoxide (DMSO). The stock solutions were further diluted into sterile 25% potato dextrose broth (PDB) so that the diluted solutions could be used for the antifungal susceptibility studies. This way, a typical microdilution study would reach a final ratio of about 0.5-2% v/v of DMSO in 25% PDB.
Spore inocula were prepared in sterile distilled water with 0.1% Tween® 20 (a polysorbate surfactant), and a hemocytometer was used to determine the spore density. Typically, the spore inoculum was prepared fresh prior to each study, and the inoculum was appropriately diluted to a final concentration of 0.4-1×10^5 spores/mL or colony-forming unit (CFU)/mL in each study. The spore suspension can be stored in a refrigerator at 4° C. for up to one week.
The minimal inhibitory concentrations (MICs) for individual antifungal agents were determined by following a modified broth microdilution protocol CLSI (Clinical and Laboratory Standards Institute) M38-A2 [Clinical and Laboratory Standards Institute (2008) Reference method for broth dilution antifungal susceptibility testing of filamentous fungi—2nd edition: Approved Standard M38-A2, CLSI, Wayne, Pa.] where 25% potato dextrose broth (PDB) was used as the medium. The studies were performed in flat bottom, 96-well microtiter plates (Greiner Bio-One, Frickenhausen, Germany).
Plates sealed with clear polyester film (VWR, Radnor, Pa.) were incubated at a temperature of about 25° C. The progress of fungal growth was monitored at 48 hours and 72 hours.

[2] = system: Alternaria alternata; assay: Fungus resistance test for painted surfaces containing antifungal additives (defacement rating); design: key: 10 = no defacement, 0 = completely defaced
Description: (§1) A Defacement Rating is measured by estimating the percentage of surface defacement with 10 being no defacement and 0 begin completely defaced.
(§2) This test was used to evaluate the resistance of paint films containing antifungal additives to surface fungal growth.
(§3) Olympic® Home interior flat latex paint (PPG Industries, Pittsburgh, Pa.) and Valspar® QuikHide White flat interior paint (Valspar Corporation, Minneapolis, Minn.) were used for all studies unless otherwise noted. Stock solutions of the antifungal additives of interest were prepared in reagent grade dimethyl sulfoxide (DMSO; Alfa Aesar, Ward Hill, Mass.). Additives were spiked (by adding appropriate amounts of the antifungal stock solutions) into the liquid paint at specified concentrations. Samples of the additive-spiked paint were vigorously mixed with a vortex mixer for at least one minute to ensure uniform dispersion of the additive in the paint. […] Studies that use other brands of paint followed the same protocol as described for those using the Olympic® Home interior flat latex paint and Valspar® QuikHide paint.
(§4) Test surfaces were prepared in triplicate. In most cases, the tested conditions were repeated on a different date, again in triplicate. […] Two coats of paint were applied with a polyester brush to completely cover both faces of the filter paper disc, allowing at least four hours drying time between coats.
(§5) Nutrient-Salts Agar (NSA) medium was prepared according to ASTM method G21-13 in 100×15 mm sterile polystyrene petri dishes (VWR® Radnor, Pa.) with a solidified agar layer of about 3 to about 6 mm (⅛ to ¼ in.) in depth. The agar was allowed to solidify for at least 24 hours before being used. The painted test filter paper discs were placed in the center of the agar plates in a biosafety hood while wearing clean nitrile gloves.
(§6) The paint coatings were evaluated against three representative cellulose-supportable fungi: Stachybotrys chartarum, Penicillium chrysogenum, and Alternaria alternata. […] Fungal isolates of Alternaria alternata and Penicillium chrysogenum were obtained from the Plant Pathology and Environmental Microbiology Department at Penn State University.
(§7) A spore suspension of each of these fungi was prepared by pouring a 20-mL portion of autoclaved deionized water containing 0.01% Tween® 20 onto a subculture of each fungal species. Spores were counted with the use of a hemocytometer (Hausser Scientific, Horsham, Pa.) under a compound light microscope. Spore suspensions of Stachybotrys chartarum and Penicillium chrysogenum were diluted to 1×10^6 spores/mL with autoclaved deionized water. Spore suspensions of Alternaria alternata were used “as is” in the range of 200,000 to 400,000 spores/mL.
(§8) Painted test surfaces were inoculated with a spray bottle or with a sterile cotton-tipped applicator. To inoculate the sample with a spray bottle, the spore suspension was sprayed twice on the painted test discs with an autoclaved spray bottle that delivered approximately 0.14 g of fluid per spray. To inoculate the sample with a cotton-tipped applicator, an autoclaved cotton-tipped applicator was submerged in approximately 400 μL of the spore inoculum solution (spore concentrations described above) and applied evenly over the surface of the painted test surface twice. A fresh autoclaved cotton-tipped applicator was used for the application of each painted disc. All the paint studies with Alternaria alternata and Stachybotrys chartarum were inoculated using the spray bottle method. For studies with Penicillium chrysogenum using Olympic® Home paint, the spray bottle inoculation method was used. For studies with Penicillium chrysogenum using Valspar® QuikHide paint, the cotton-tipped applicator inoculation method was used.
(§9) After inoculation, the NSA agar plates were sealed with Parafilm®.

[3] = system: Penicillium chrysogenum; assay: as above; design: key: 10 = no defacement, 0 = completely defaced
Description: as §1, §2, §3, §4, §5, §6, §7, §8, §9

[4] = system: Stachybotrys chartarum; assay: as above; design: key: 10 = no defacement, 0 = completely defaced
Description: as §1, §2, §3, §4, §5, §6, §7, §8, §9

[5] = +100 μg/mL in Olympic Home paint, 7 days
[6] = +100 μg/mL in Olympic Home paint, 14 days
[7] = +100 μg/mL in Olympic Home paint, 21 days
[8] = +200 μg/mL in Olympic Home paint, 7 days
[9] = +200 μg/mL in Olympic Home paint, 14 days
[10] = +200 μg/mL in Olympic Home paint, 21 days
[11] = +200 μg/mL in Valspar QuikHide paint, 7 days
[12] = +200 μg/mL in Valspar QuikHide paint, 14 days
[13] = +200 μg/mL in Valspar QuikHide paint, 21 days
[14] = +10 μg/mL in Olympic Home paint, 7 days
[15] = +10 μg/mL in Olympic Home paint, 14 days
[16] = +10 μg/mL in Olympic Home paint, 21 days

| SMILES | MIC [1] [µg/mL] | Average defacement rating ± standard deviation [2, 5] | Average defacement rating ± standard deviation [2, 6] | Average defacement rating ± standard deviation [2, 7] | Average defacement rating ± standard deviation [3, 5] | Average defacement rating ± standard deviation [3, 6] | Average defacement rating ± standard deviation [3, 7] | Average defacement rating ± standard deviation [4, 5] | Average defacement rating ± standard deviation [4, 6] | Average defacement rating ± standard deviation [4, 7] | Average defacement rating ± standard deviation [3, 8] | Average defacement rating ± standard deviation [3, 9] | Average defacement rating ± standard deviation [3, 10] | Average defacement rating ± standard deviation [3, 11] | Average defacement rating ± standard deviation [3, 12] | Average defacement rating ± standard deviation [3, 13] | other results |
| --- | --- | --- | --- | --- | --- | --- | --- | --- | --- | --- | --- | --- | --- | --- | --- | --- | --- |
| O=C1C2CC=CCC2C(=O)N1SC(Cl)(Cl)Cl (centres unmarked) [Captan] | 12.5 (≈ 41.6 µM) | 0.1 ± 0.3 | 0.0 ± 0.0 | 0.0 ± 0.0 | 3.2 ± 1.8 | 0.0 ± 0.0 | 0.0 ± 0.0 | 2.9 ± 3.3 | 0.0 ± 0.0 | 0.0 ± 0.0 | – | – | – | – | – | – | Average defacement rating ± standard deviation ([2]; +100 μg/mL in Olympic Home paint, 7 days, listed as captan): 0.1±0.3 |
| N#Cc1c(Cl)c(Cl)c(Cl)c(C#N)c1Cl [Chlorothalonil, chlorothalonil] | 0.2 (≈ 0.752 µM) | 1.9 ± 2.4 | 0.5 ± 1.8 | 0.5 ± 1.8 | 4.9 ± 1.9 | 0.0 ± 0.0 | 0.0 ± 0.0 | 5.8 ± 3.0 | 0.8 ± 1.8 | 0.6 ± 1.7 | 8.3 ± 1.4 | 0.8 ± 2.0 | 0.0 ± 0.0 | 10.0 ± 0.0 | 5.3 ± 0.6 | 0.3 ± 0.6 | – |
| OB1OCc2cc(Cl)ccc21 [Compound B8, 5-chloro-1,3-dihydro-2,1-benzoxaborol-1-ol] | 0.5 (≈ 2.97 µM) | 9.9±0.4 | 8.1 ± 1.5 | 7.8±1.5 | 7.3 ± 1.3 | 0.0 ± 0.0 | 0.0 ± 0.0 | 9.9±0.4 | 8.1 ± 1.9 | – | 10.0±0.0 | 9.5 ± 1.2 | 8.7 ± 2.3 | – | – | – | Average defacement rating ± standard deviation [2, 14]: 5.0 ± 1.0; Average defacement rating ± standard deviation [2, 15]: 4.7 ± 1.2; Average defacement rating ± standard deviation [2, 16]: 4.7 ± 1.2; Average defacement rating ± standard deviation [4, 14]: 5.7 ± 4.9; Average defacement rating ± standard deviation [4, 15]: 0.0 ± 0.0; Average defacement rating ± standard deviation [4, 16]: 0.0 ± 0.0 |
| OB1OCc2cc(F)ccc21 [Compound B9, 5-Fluoro-1,3-dihydro-2,1-benzoxaborol-1-ol] | 0.5 (≈ 3.29 µM) | 7.4±1.8 | 3.8 ± 0.9 | 3.8±0.9 | 3.7 ± 1.5 | 0.0 ± 0.0 | 0.0 ± 0.0 | 9.9±0.3 | 4.4 ± 2.9 | 2.0 ± 2.8 | 10.0 ± 0.0 | 9.8 ± 0.4 | 6.7 ± 3.9 | 10.0 ± 0.0 | 10.0 ± 0.0 | 9.7 ± 0.6 | – |
| CCCCNC(=O)OCC#CI [IPBC, 3-Iodo-2-propynylbutylcarbamate] | – | 9.9 ± 0.4 | 8.4 ± 2.7 | 7.5 ± 3.4 | 10.0 ± 0.0 | 9.4 ± 0.4 | 9.4 ± 0.4 | 9.9±0.3 | 8.1 ± 1.5 | 6.1±2.7 | 10.0 ± 0.0 | 10.0 ± 0.0 | 9.3 ± 0.8 | 10.0 ± 0.0 | 10.0 ± 0.0 | 10.0 ± 0.0 | 3 day MIC [1]: 0.4 µg/mL |
| CCCCCCCCn1sccc1=O [OIT, 2-Octyl-4-isothiazolin-3-one] | – | 8.1±0.3 | 6.9 ± 1.0 | 4.9±0.7 | 10.0 ± 0.0 | 10.0 ± 0.0 | 9.3 ± 1.5 | 9.9 ± 0.3 | 8.2 ± 2.5 | 6.9 ± 2.4 | 10.0 ± 0.0 | 10.0 ± 0.0 | 9.8 ± 0.4 | 10.0 ± 0.0 | 10.0 ± 0.0 | 10.0 ± 0.0 | – |
| Oc1cc(Cl)ccc1Oc1ccc(Cl)cc1Cl [Triclosan, triclosan] | – | 0.1 ± 0.4 | 0.0 ± 0.0 | 0.0 ± 0.0 | 1.8 ± 1.4 | 0.0 ± 0.0 | 0.0 ± 0.0 | 0.8 ± 1.4 | 0.0 ± 0.0 | 0.0 ± 0.0 | 9.3 ± 0.5 | 0.2 ± 0.4 | 0.0 ± 0.0 | 4.0 ± 3.6 | 0.0 ± 0.0 | 0.0 ± 0.0 | – |
